Among the data in ChEMBL document CHEMBL1131977, “Synthesis and in vitro activity of new oxazolidinone antibacterial agents having substituted isoxazoles” (1999) are MIC values, retold here.

The structures appear in SMILES notation. Converted amounts (≈) assume the structure as drawn.

The test system of one test is Staphylococcus aureus. Kind of test: In vitro antibacterial activity against methicillin-resistant Staphylococcus aureus (MRSA) C6068. The test is classed as functional.
For orientation: MIC means the smallest concentration in the dilution series that meets the test's criterion for growth inhibition. A higher MIC goes with a need for much substance. `CC(=O)NC[C@H]1CN(c2ccc(N3CCN(C(=O)c4cc(-c5cnsn5)no4)CC3)c(F)c2)C(=O)O1` returned an MIC of 1 µg/mL (≈ 1.94 µM).

For `CC(=O)NC[C@H]1CN(c2ccc(N3CCN(C(=O)c4cc(Cl)no4)CC3)c(F)c2)C(=O)O1`, the lowest concentration to inhibit growth (MIC) was 1 µg/mL (≈ 2.15 µM).

`COc1cc(CN2CCN(c3ccc(N4C[C@H](CNC(C)=O)OC4=O)cc3F)CC2)on1` gave an MIC of 4 µg/mL (≈ 8.94 µM).

Regarding `CC(=O)NC[C@H]1CN(c2ccc(N3CCN(C(=O)CO)CC3)c(F)c2)C(=O)O1` [EPEREZOLID], 1 µg/mL (≈ 2.54 µM) was the least that counted as inhibitory (MIC).

Another test concerns Staphylococcus epidermidis. The test can be described thus: In vitro antibacterial activity against Staphylococcus epidermis (S.e.1) […]. Type of test: functional.
On to `CC(=O)NC[C@H]1CN(c2ccc(N3CCN(C(=O)c4cc(-c5cnsn5)no4)CC3)c(F)c2)C(=O)O1`, for which the MIC was determined as 1 µg/mL (≈ 1.94 µM).

Regarding `CC(=O)NC[C@H]1CN(c2ccc(N3CCN(C(=O)c4cc(Cl)no4)CC3)c(F)c2)C(=O)O1`, inhibition of growth (MIC) required 1 µg/mL (≈ 2.15 µM).

On to `COc1cc(CN2CCN(c3ccc(N4C[C@H](CNC(C)=O)OC4=O)cc3F)CC2)on1`, for which 2 µg/mL (≈ 4.47 µM) was the least that counted as inhibitory (MIC).

As for `CC(=O)NC[C@H]1CN(c2ccc(N3CCN(C(=O)CO)CC3)c(F)c2)C(=O)O1` [EPEREZOLID], the MIC was determined as 0.5 µg/mL (≈ 1.27 µM).

A further test deals with Streptococcus pyogenes. The test can be described thus: In vitro antibacterial activity against Streptococcus pyogenes ATCC 8668 (S.p.1). The test is classed as functional.
In turn, `CC(=O)NC[C@H]1CN(c2ccc(N3CCN(C(=O)c4cc(-c5cnsn5)no4)CC3)c(F)c2)C(=O)O1` showed a minimal inhibitory concentration (MIC) of 0.5 µg/mL (≈ 0.97 µM).

Compound `CC(=O)NC[C@H]1CN(c2ccc(N3CCN(C(=O)c4cc(Cl)no4)CC3)c(F)c2)C(=O)O1` had an MIC of 1 µg/mL (≈ 2.15 µM).

`COc1cc(CN2CCN(c3ccc(N4C[C@H](CNC(C)=O)OC4=O)cc3F)CC2)on1`: 1 µg/mL (≈ 2.23 µM) was the least that counted as inhibitory (MIC).

In the case of `CC(=O)NC[C@H]1CN(c2ccc(N3CCN(C(=O)CO)CC3)c(F)c2)C(=O)O1` [EPEREZOLID], the minimal inhibitory concentration (MIC) was 0.25 µg/mL (≈ 0.634 µM).

A further test deals with Enterococcus faecium. The test can be described thus: In vitro antibacterial activity against vancomycin-resistant Enterococcus faecium C6487 (VRE). Type of test: functional.
As for `CC(=O)NC[C@H]1CN(c2ccc(N3CCN(C(=O)c4cc(-c5cnsn5)no4)CC3)c(F)c2)C(=O)O1`, the minimal inhibitory concentration (MIC) was found to be 1 µg/mL (≈ 1.94 µM).

Regarding `CC(=O)NC[C@H]1CN(c2ccc(N3CCN(C(=O)c4cc(Cl)no4)CC3)c(F)c2)C(=O)O1`, the MIC is 2 µg/mL (≈ 4.29 µM).

As for `COc1cc(CN2CCN(c3ccc(N4C[C@H](CNC(C)=O)OC4=O)cc3F)CC2)on1`, the minimal inhibitory concentration (MIC) is 4 µg/mL (≈ 8.94 µM).

On to `CC(=O)NC[C@H]1CN(c2ccc(N3CCN(C(=O)CO)CC3)c(F)c2)C(=O)O1` [EPEREZOLID], for which the minimum inhibitory concentration (MIC) is 1 µg/mL (≈ 2.54 µM).

Another test concerns Staphylococcus epidermidis. Kind of test: In vitro antibacterial activity against Staphylococcus epidermis (S.e.2) C2235. Type of test: functional.
The compound `CC(=O)NC[C@H]1CN(c2ccc(N3CCN(C(=O)c4cc(-c5cnsn5)no4)CC3)c(F)c2)C(=O)O1` showed an MIC of 1 µg/mL (≈ 1.94 µM).

`CC(=O)NC[C@H]1CN(c2ccc(N3CCN(C(=O)c4cc(Cl)no4)CC3)c(F)c2)C(=O)O1` gave a minimal inhibitory concentration (MIC) of 1 µg/mL (≈ 2.15 µM).

`COc1cc(CN2CCN(c3ccc(N4C[C@H](CNC(C)=O)OC4=O)cc3F)CC2)on1` returned an MIC of 4 µg/mL (≈ 8.94 µM).

In turn, `CC(=O)NC[C@H]1CN(c2ccc(N3CCN(C(=O)CO)CC3)c(F)c2)C(=O)O1` [EPEREZOLID] registered an MIC of 1 µg/mL (≈ 2.54 µM).

For the next test, the system named is Staphylococcus aureus. Kind of test: In vitro antibacterial activity against Staphylococcus aureus (S. a.) ATCC 29213. The test is classed as functional.
Compound `CC(=O)NC[C@H]1CN(c2ccc(N3CCN(C(=O)c4cc(-c5cnsn5)no4)CC3)c(F)c2)C(=O)O1` returned an MIC of 4 µg/mL (≈ 7.76 µM).

As for `CC(=O)NC[C@H]1CN(c2ccc(N3CCN(C(=O)c4cc(Cl)no4)CC3)c(F)c2)C(=O)O1`, the minimum inhibitory concentration (MIC) came out at 4 µg/mL (≈ 8.59 µM).

With `COc1cc(CN2CCN(c3ccc(N4C[C@H](CNC(C)=O)OC4=O)cc3F)CC2)on1`, the minimal inhibitory concentration (MIC) was 8 µg/mL (≈ 17.9 µM).

`CC(=O)NC[C@H]1CN(c2ccc(N3CCN(C(=O)CO)CC3)c(F)c2)C(=O)O1` [EPEREZOLID]: the MIC amounted to 2 µg/mL (≈ 5.07 µM).

A further test relates to Enterococcus faecalis. Kind of test: In vitro antibacterial activity against Enterococcus faecalis C6291 (E.f.1). Type of test: functional.
Regarding `CC(=O)NC[C@H]1CN(c2ccc(N3CCN(C(=O)c4cc(-c5cnsn5)no4)CC3)c(F)c2)C(=O)O1`, inhibition of growth (MIC) required 2 µg/mL (≈ 3.88 µM).

In turn, `CC(=O)NC[C@H]1CN(c2ccc(N3CCN(C(=O)c4cc(Cl)no4)CC3)c(F)c2)C(=O)O1` gave a minimal inhibitory concentration (MIC) of 2 µg/mL (≈ 4.29 µM).

`COc1cc(CN2CCN(c3ccc(N4C[C@H](CNC(C)=O)OC4=O)cc3F)CC2)on1`: the minimal inhibitory concentration (MIC) was 8 µg/mL (≈ 17.9 µM).

`CC(=O)NC[C@H]1CN(c2ccc(N3CCN(C(=O)CO)CC3)c(F)c2)C(=O)O1` [EPEREZOLID] returned an MIC of 2 µg/mL (≈ 5.07 µM).

A further test has as its system Enterococcus faecium. The test can be described thus: In vitro antibacterial activity against Enterococcus faecium C6301 (E.f.2). The test is classed as functional.
Regarding `CC(=O)NC[C@H]1CN(c2ccc(N3CCN(C(=O)c4cc(-c5cnsn5)no4)CC3)c(F)c2)C(=O)O1`, the minimal inhibitory concentration (MIC) was found to be 2 µg/mL (≈ 3.88 µM).

Turning to `CC(=O)NC[C@H]1CN(c2ccc(N3CCN(C(=O)c4cc(Cl)no4)CC3)c(F)c2)C(=O)O1`, the MIC came to 2 µg/mL (≈ 4.29 µM).

As to `COc1cc(CN2CCN(c3ccc(N4C[C@H](CNC(C)=O)OC4=O)cc3F)CC2)on1`, 4 µg/mL (≈ 8.94 µM) was the least that counted as inhibitory (MIC).

Take `CC(=O)NC[C@H]1CN(c2ccc(N3CCN(C(=O)CO)CC3)c(F)c2)C(=O)O1` [EPEREZOLID]: the MIC is 1 µg/mL (≈ 2.54 µM).

In another test the test system is Staphylococcus aureus. Kind of test: In vitro antibacterial activity against ciprofloxacin-resistant Staphylococcus aureus (CRSA) C6043. The test is classed as functional.
As to `CC(=O)NC[C@H]1CN(c2ccc(N3CCN(C(=O)c4cc(-c5cnsn5)no4)CC3)c(F)c2)C(=O)O1`, it took 2 µg/mL (≈ 3.88 µM) to inhibit growth (MIC).

In turn, `CC(=O)NC[C@H]1CN(c2ccc(N3CCN(C(=O)c4cc(Cl)no4)CC3)c(F)c2)C(=O)O1` yielded an MIC of 2 µg/mL (≈ 4.29 µM).

In turn, `COc1cc(CN2CCN(c3ccc(N4C[C@H](CNC(C)=O)OC4=O)cc3F)CC2)on1` came in with a minimal inhibitory concentration (MIC) of 8 µg/mL (≈ 17.9 µM).

As for `CC(=O)NC[C@H]1CN(c2ccc(N3CCN(C(=O)CO)CC3)c(F)c2)C(=O)O1` [EPEREZOLID], the lowest concentration to inhibit growth (MIC) was 2 µg/mL (≈ 5.07 µM).

In the next test the test system is Staphylococcus aureus. Kind of test: In vitro antibacterial activity against methicillin-susceptible Staphylococcus aureus (MSSA) C2214. Type of test: functional.
`CC(=O)NC[C@H]1CN(c2ccc(N3CCN(C(=O)c4cc(-c5cnsn5)no4)CC3)c(F)c2)C(=O)O1`: inhibition of growth (MIC) required 4 µg/mL (≈ 7.76 µM).

In turn, `CC(=O)NC[C@H]1CN(c2ccc(N3CCN(C(=O)c4cc(Cl)no4)CC3)c(F)c2)C(=O)O1` had an MIC of 4 µg/mL (≈ 8.59 µM).

Compound `COc1cc(CN2CCN(c3ccc(N4C[C@H](CNC(C)=O)OC4=O)cc3F)CC2)on1` registered an MIC of 8 µg/mL (≈ 17.9 µM).

As for `CC(=O)NC[C@H]1CN(c2ccc(N3CCN(C(=O)CO)CC3)c(F)c2)C(=O)O1` [EPEREZOLID], 2 µg/mL (≈ 5.07 µM) was the least that counted as inhibitory (MIC).

The next test relates to Streptococcus pyogenes. The test can be described thus: In vitro antibacterial activity against Streptococcus pyogenes C6003 (S.p.2). Type of test: functional.
`CC(=O)NC[C@H]1CN(c2ccc(N3CCN(C(=O)c4cc(-c5cnsn5)no4)CC3)c(F)c2)C(=O)O1` displayed an MIC of 0.5 µg/mL (≈ 0.97 µM).

For the compound `CC(=O)NC[C@H]1CN(c2ccc(N3CCN(C(=O)c4cc(Cl)no4)CC3)c(F)c2)C(=O)O1`, 1 µg/mL (≈ 2.15 µM) was the least that counted as inhibitory (MIC).

In turn, `COc1cc(CN2CCN(c3ccc(N4C[C@H](CNC(C)=O)OC4=O)cc3F)CC2)on1` returned an MIC of 1 µg/mL (≈ 2.23 µM).

Compound `CC(=O)NC[C@H]1CN(c2ccc(N3CCN(C(=O)CO)CC3)c(F)c2)C(=O)O1` [EPEREZOLID] returned a minimum inhibitory concentration (MIC) of 0.5 µg/mL (≈ 1.27 µM).
